Results from patent US11524938B2, “Aromatic sulfonamide derivatives” (Bayer Pharma Aktiengesellschaft, priority 2016, dated 2022).

What was measured:
human P2X4 = biological target: T1, human P2X4 (Homo sapiens, UniProt Q99571); assay: FLIPR assay, human P2X4 1321N1 Astrocytoma cells; type: cell-based; details: agonist Mg-ATP 0.5 μM (EC80)
T1 sequence (Q99571 1-388): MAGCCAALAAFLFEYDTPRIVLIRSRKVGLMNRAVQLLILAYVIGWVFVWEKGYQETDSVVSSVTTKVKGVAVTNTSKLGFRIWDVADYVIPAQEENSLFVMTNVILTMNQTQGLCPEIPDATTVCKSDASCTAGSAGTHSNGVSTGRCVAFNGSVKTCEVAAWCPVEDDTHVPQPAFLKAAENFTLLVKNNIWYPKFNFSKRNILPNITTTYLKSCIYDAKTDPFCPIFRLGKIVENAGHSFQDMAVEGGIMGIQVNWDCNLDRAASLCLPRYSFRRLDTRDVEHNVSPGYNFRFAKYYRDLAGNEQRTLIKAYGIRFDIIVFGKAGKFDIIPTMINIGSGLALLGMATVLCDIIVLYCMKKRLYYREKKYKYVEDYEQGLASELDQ
Description: (§1) 1321N1 Astrocytoma cells stably expressing human P2X4 or rat P2X4 or mouse P2X4 were plated in Collagen I TC-treated microplate at a seeding density of 10000 cells/well and incubated overnight. P2X4 function was assessed by measuring intracellular calcium changes using the calcium-chelating dye Fluo8-AM (Molecular Devices) on a fluorescent imaging plate reader (FLEX/FLIPR station; Molecular Devices). On the day of the assay, the medium was removed and the cells were incubated for 30 min at 37 °C and 5% CO2 in 30 μL of dye buffer (Hank's balanced salt solution, 10 mM HEPES, 1.8 mM CaCl2, 1 mM MgCl2, 2 mM probenecid, 5 mM D-glucose monohydrate, 5 μM Fluo8-AM, pH=7.4). Compounds diluted in probenecid buffer (Hank's balanced salt solution, 10 mM HEPES, 1.8 mM CaCl2, 1 mM MgCl2, 2 mM probenecid, 5 mM D-glucose monohydrate, pH=7.4) were added in a volume of 10 μL and allowed to incubate for 30 min at room temperature. The final assay DMSO concentration was 0.25%. The agonist, Mg-ATP (Sigma), was added in a volume of 10 μL at a concentration representing the EC80 value. EC80 was determined to be 0.5 μM for human and mouse P2X4 and 5 μM for rat P2X4. The fluorescence was measured for an interval of 120 sec at 2 sec intervals. The excitation and emission wavelengths used to monitor fluorescence were 470-495 nm and 515-575 nm, respectively. The data was analyzed based on the increase in peak relative fluorescence units (RFU) compared to the basal fluorescence and the data was normalized to the agonist control. The compounds were tested in triplicates per plate and mean values were plotted in Excel XLFit to determine IC50 values, percentage of maximal inhibition and the Hill coefficients.

mouse P2X4 = biological target: T2, mouse P2X4 (Mus musculus, UniProt Q9JJX6); assay: FLIPR assay, mouse P2X4 1321N1 Astrocytoma cells; type: cell-based; details: agonist Mg-ATP 0.5 μM (EC80)
T2 sequence (Q9JJX6 1-388): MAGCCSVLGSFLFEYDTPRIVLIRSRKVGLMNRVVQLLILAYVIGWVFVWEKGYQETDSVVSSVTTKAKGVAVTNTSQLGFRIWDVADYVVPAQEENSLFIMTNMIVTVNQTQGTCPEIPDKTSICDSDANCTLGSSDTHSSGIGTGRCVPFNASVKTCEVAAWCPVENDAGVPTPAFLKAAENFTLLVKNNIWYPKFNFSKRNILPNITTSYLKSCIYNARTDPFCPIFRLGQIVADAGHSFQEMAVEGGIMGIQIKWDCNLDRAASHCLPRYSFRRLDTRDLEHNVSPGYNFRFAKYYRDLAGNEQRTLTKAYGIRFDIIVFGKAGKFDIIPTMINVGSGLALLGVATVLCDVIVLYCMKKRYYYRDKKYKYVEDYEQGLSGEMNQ
Description: as §1

Sprague Dawley rats = assay: CFA-Induced Mechanical Hyperalgesia Model in Rat; type: in vivo; details: 3 oral doses, 26 h after CFA, vs vehicle
Description: Male Sprague Dawley rats were used. Mechanical hyperalgesia was induced by injecting […] of Complete Freund's Adjuvant (CFA) into the plantar surface of the left hind paw. Mechanical hyperalgesia was measured using the Pressure Application Measurement apparatus (Ugo Basile, Gemonio, Italy). Briefly, a linearly increasing pressure was applied to an area of approximately 50 mm^2 of the plantar side of the hind paw, until a behavioural response (paw withdrawal) was observed or until the pressure reached 1000 gf. The pressure at which the behavioural response occurred was recorded as the Paw Withdrawal Threshold (PWT). Both CFA-injected and contralateral PWTs were determined for each rat, in each treatment group and at each time point of the studies. Rats received 3 oral doses of test compound at approximately 12 hours interval starting 1 hour prior to CFA injection. Mechanical hyperalgesia testing was performed 2 hours before CFA injection and 2 hours after the last dosing (FIGS. 4a and 4b).
FIGS. 4a and 4b as nonbinding explanatory examples of compounds according to the invention represent Paw Withdrawal Threshold in gramm (y-axis) of the ipsilateral paw of all tested animals before CFA treatment and 26 h after CFA treatment and vehicle or Example 39 (FIG. 4a) or 326 (FIG. 4b) treatment. […]

Row | Human P2X4 1321N1 Astrocytoma Cells (FLIPR Assay) avg Efficacy [%] (human P2X4) | Mouse P2X4 1321N1 Astrocytoma Cells (FLIPR Assay) avg Efficacy [%] (mouse P2X4) | Compound | Paw Withdrawal Threshold (PWT), ipsilateral paw (Sprague Dawley rats)
1 | 80% | 87% | NS(=O)(=O)c1cc(NC(=O)Cc2ccccc2Cl)ccc1-c1cnn(C(F)F)c1 [Example 326, 2-(2-Chlorophenyl)-N-{4-[1-(difluoromethyl)-1H-pyrazol-4-yl]-3-sulfamoylphenyl}acetamide] | significantly increased PWT
2 | 83% | 87% | N#Cc1cnn(-c2ccc(NC(=O)Cc3ccccc3Cl)cc2S(N)(=O)=O)c1 [Example 39, 2-(2-Chlorophenyl)-N-[4-(4-cyano-1H-pyrazol-1-yl)-3-sulfamoylphenyl]acetamide] | significantly increased PWT
